Structures are written as SMILES.

Experimental findings from US20180296523A1, “USE OF POLYMETHOXYLATED FLAVONES TO AMELIORATE CIRCADIAN RHYTHM DISORDERS” (THE BOARD OF REGENTS OF THE UNIVERSITY OF TEXAS SY, priority 2017, published 2018) are described below.

The test system of this test is clock genes and metabolic output genes in mouse liver. The experiment in a line: Liver gene expression in HFD-fed WT mice (qPCR, Western blot, microarray). Type of test: in vivo. On the procedure: For qPCR analysis, cells were split into 6-well plates at an initial density of 3×10^5 cells and incubated for 2-4 days before synchronization (5 μM Fsk or 100 nM Dex) followed by compound treatment. RNA samples were prepared by using PureXtract RNAsol for cDNA synthesis and real-time PCR (GenDEPOT) was performed with a MaxPro3000 Thermocycler (Agilent). qPCR primers used are listed in the table shown in Example 4. Whole cell lysates from cells similarly grown and treated in 60 mm dishes and tissue extracts were prepared as described (Yoo et al., 2013) and subjected to Western blot analysis (GenDEPOT). Antibodies for REV-ERBα (Pierce and Cell Signaling), PER1 (Lee et al., 2001) and other clock proteins (Yoo et al., 2013) were used. Total RNAs prepared from liver tissues from RC-fed, Vehicle-treated and HFD-fed, Vehicle or NOB-treated WT mice for 10 weeks were reverse transcribed into cDNAs, which were then biotin-UTP labeled and hybridized to the Illumina mouse WG-6v2.0 Expression BeadChip. Genes with statistically significant fold change differences was clustered using centered correlation (Cluster 3.0) and then visualized as a heat map on Tree View. Moreover, genes with statistically significant differences derived from microarray analyses were imported into the Ingenuity Pathway Analysis (IPA, http://www.ingenuity.com). In IPA, differentially expressed genes are mapped to genetic networks in the Ingenuity Knowledge Database to generate a set of network and then ranked by score. Heatmaps were generated by using Cluster 3.0 program. ChIP-seq data analysis was conducted as previously described (Koike et al., 2012). The data discussed in this publication have been deposited in NCBI's Gene Expression Omnibus (Edgar et al., 2002) and are accessible through GEO Series accession number GSE78848. To characterize the molecular basis of nobiletin action in HFD-fed WT mice, studies focused on a major metabolic organ, the liver, in which we observed a strong protection by nobiletin was observed. Specifically, total RNAs prepared from liver tissues from RC.Veh and HF.Veh or HF.nobiletin WT mice for 10 weeks were reverse transcribed into cDNAs, which were then biotin-UTP labeled and hybridized to the Illumina mouse WG-6v2.0 Expression BeadChip. The data discussed in this publication have been deposited in the National Center for Biotechnology Information's Gene Expression Omnibus (GEO) and are accessible through GEO Series accession number GSE78848. Real-time qPCR and western blotting analyses of circadian gene expression were conducted as previously described (Yoo et al., 2013). Primers used were as follows: […]

Setting [1] is: HF.nobiletin versus HF.Veh mice.

Consider `COc1ccc(-c2cc(=O)c3c(OC)c(OC)c(OC)c(OC)c3o2)cc1OC` [nobiletin], for which, where the note is “DIO mouse liver, relative to control treatment”, the “ROR target genes (e.g., Cyp7b1, IkBa, and Gck)” value is reported as “induced”. Further, under setting [1], the “circadian clock transcript oscillations in liver” value is recorded as “improved circadian clock transcript oscillations” and the “clock protein rhythms in liver” value is given as “largely restored clock protein rhythms”. Also, the “transcript expression of Cidec/Fsp27 in liver” value (HFD-fed WT mice, qPCR) is “reverted back to baseline levels”. In addition, the “expression of genes involved in gluconeogenesis and glycolysis (e.g., Pdk4 and Pkm2)” value (liver) is given as “altered the expression”.
